Among the data in US20260021196A1, “HOMOGENEOUS ANTIBODY-CONJUGATES WITH HIGH PAYLOAD LOADING” (SYNAFFIX B.V., priority 2023, published 2026) are IC50 values, retold here.

Molecules are shown by their SMILES.

What all share (type): cell-based
One experiment deals with BT-474 cells. In words: In vitro cytotoxicity (Example 131). Conditions: Homo sapiens, Table 8 / FIG. 22B, DAR8 ADCs and free payloads. Here is the method: (§1) The cells were incubated for 5 days in a humidified atmosphere at 37° C. and 5% CO2. […] After approximately 4 hours in a humidified atmosphere at 37° C. and 5% CO2 the fluorescence was detected with a fluorescence plate reader (Infinite® M1000 Tecan) at 560 nm excitation and 590 nm emission. The relative fluorescent units (RFU) were normalized to cell viability percentage by setting wells without cells at 0% viability and wells with untreated cells at 100% viability (see FIGS. 22A-22C).

The next experiment concerns NCI-N87 (HER2 3+) cells. Nature of the experiment: In vitro cytotoxicity, resazurin cell viability (Examples 131-133). Conditions: Homo sapiens, NCI-N87, 120 h; Table 8 / FIG. 22A, DAR8 ADCs and free payloads, 5 days incubation. The procedure:
as §1
(§2) After approximately 4 hours in a humidified atmosphere at 37° C. and 5% CO2 the fluorescence was detected with a fluorescence plate reader (Infinite® M1000 Tecan) at 560 nm excitation and 590 nm emission. The relative fluorescent units (RFU) were normalized to cell viability percentage by setting wells without cells at 0% viability and wells with untreated cells at 100% viability (see FIGS. 23A-23B).
(§3) The cells were incubated for 5 days in a humidified atmosphere at 37° C. and 5% CO2. […] After approximately 4 hours in a humidified atmosphere at 37° C. and 5% CO2 the fluorescence was detected with a fluorescence plate reader (Infinite® M1000 Tecan) at 560 nm excitation and 590 nm emission. The relative fluorescent units (RFU) were normalized to cell viability percentage by setting wells without cells at 0% viability and wells with untreated cells at 100% viability (see FIGS. 24A-24B).
(In general: Alamar Blue is a resazurin reagent that responds to reducing activity.)

A further experiment relates to MDA-MB-231 (HER2−) cells. In words: In vitro cytotoxicity, negative control cell line (Examples 131-133). The conditions noted are these: Homo sapiens, MDA-MB-231, 120 h, Table 8 / FIG. 22C, 5 days incubation, read-out: IC50 (MDA-MB231 cells). The procedure: as §1, §2, §3

The IC50 is the point on the concentration scale where inhibition reaches its midpoint. Take `CO[C@@]12[C@H](COC(N)=O)C3=C(C(=O)C(C)=C(N)C3=O)N1C[C@@H]1N[C@@H]12` [Mitomycin (free payload), Mitomycin C]: the IC50 with BT-474 cells is 905 nM; in the experiment with NCI-N87 (HER2 3+) cells, 94 nM; in the experiment on MDA-MB-231 (HER2−) cells, more than 100 nM.
